From patent US5550148A, “PAF synthesis modulators” (ZymoGenetics, Inc., priority 1995, dated 1996)

What was measured:
[1] = test system: remodeling PAF-acetyltransferase; assay: inhibition of remodeling PAF-acetyltransferase (remodeling pathway of PAF synthesis); type: biochemical
Description: A second screening assay detects modulators of the formation of PAF from lyso-PAF and acetyl-CoA by an enzyme termed PAF acetyltransferase. This is the second step in the remodeling pathway of PAF synthesis, described by Wykle, J. Biol. Chem. 255:10256-60, 1980.
The remodeling pathway of PAF synthesis is the pathway involved in pathological processes, such as inflammation, and particularly in neutrophil-mediated processes. The de novo pathway of PAF synthesis is required for normal physiological functions. Therefore, a desirable, anti-inflammatory, therapeutically effective PAF modulator will down-regulate the remodeling pathway, but will have little or no effect on the de novo pathway of PAF synthesis.
Briefly, to assay the remodeling pathway acetyl-transferase, […] of […] bovine serum albumin (fatty acid free; Sigma) in PBS (120 mM NaCl, 2.7 mM KCl, 10 mM phosphate buffer, pH 7.4, supplemented with 10 μM CaCl2) was added to each well of a 96-well, flat-bottom microtiter plate. The plate was incubated for 15 min at ambient temperature, then the wells were aspirated and 50 μl of PBS was added to each well. Duplicate or triplicate test samples in DMSO (≤5% (v/v)) were added to each well.
HL-60 cells (a stable, transformed hematopoietic cell line) were combined with PBS containing 0.05% TWEEN-20 and mixed vigorously at 500 rpm for 30 sec. This treatment permeabilized the HL-60 cells. An aliquot (50 μl) of HL-60 lysate so formed was added to each well of the plate, and the plate was incubated for 5 min at ambient temperature with gentle shaking.
PAF acetyl-transferase substrates were added to each well, such that 25 μl of the following solution was added per well: Lyso-PAF ([…]; Calbiochem, La Jolla, Calif.), acetyl-CoA ([…]; Calbiochem), and ^3 H-acetyl-CoA (25 μCi/ml; Amersham). The plate was gently mixed for 45 sec and then incubated at 37° C. for 20 min.
Newly synthesized PAF was extracted by adding 1.25 mg of AMBERCHROM CG-71 resin (Supelco, Bellefonte, Pa.) in 25 μl of distilled water to each well. The plate was gently shaken for 1 min, following which the resin was collected on a 102 mm×258 mm glass-fiber filter using a MICRO-CELL HARVESTER (Skatron, Waltham, Mass.). The filter was washed with 500 ml water to remove unincorporated ^3 H-acetyl-CoA. Following the wash, the filter was dried in a microwave oven for 5-10 min.
After the filter was dried, it was soaked in 10 ml of Beta Plate scintillation fluid (LKB, Loughborough, England), and bound counts were determined in a TOP COUNT scintillation counter (Pharmacia). Percentage inhibition was determined by dividing the average of 2 or 3 replicate wells by the average of 3 control wells (5% DMSO alone), and multiplying by 100.

[2] = test system: de novo PAF-acetyltransferase; assay: inhibition of de novo PAF-acetyltransferase (de novo pathway of PAF synthesis); type: biochemical
[3] = target: PAF binding sites (Homo sapiens, UniProt P25105); assay: displacement of [^3 H]PAF from PAF binding sites; conditions: 0.01, 0.1, 1 and 10 μM tested, 0.5% DMSO
Sequence of PAF binding sites (P25105 whole entry): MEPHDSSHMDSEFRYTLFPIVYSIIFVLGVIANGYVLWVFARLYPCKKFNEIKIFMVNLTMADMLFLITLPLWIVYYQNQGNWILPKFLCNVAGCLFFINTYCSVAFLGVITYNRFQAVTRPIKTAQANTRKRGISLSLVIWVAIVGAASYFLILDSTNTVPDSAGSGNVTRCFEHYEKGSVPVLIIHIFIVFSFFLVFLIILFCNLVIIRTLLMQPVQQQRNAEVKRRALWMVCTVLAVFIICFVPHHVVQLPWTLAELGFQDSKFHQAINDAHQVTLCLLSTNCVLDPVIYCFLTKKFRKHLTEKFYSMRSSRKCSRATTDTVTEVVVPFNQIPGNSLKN
Description: (§1) Compound 1494 was assayed for a variety of inhibitory activities. […] Displacement of [^3 H]pyrilamine from histamine H1 binding sites (IC50 of about 3 μM) was noted, but may be unrelated to functional receptor agonism or antagonism. Displacement of [3H]dexamethasone from glucocorticoid binding sites (IC50 of about 3 μM) was also observed. Inhibition of the following activities was also detected: […]

[4] = target: histamine H1 binding sites (Homo sapiens, UniProt P35367); assay: displacement of [^3 H]pyrilamine from histamine H1 binding sites; conditions: 0.01, 0.1, 1 and 10 μM tested, 0.5% DMSO
Sequence of histamine H1 binding sites (P35367 whole entry): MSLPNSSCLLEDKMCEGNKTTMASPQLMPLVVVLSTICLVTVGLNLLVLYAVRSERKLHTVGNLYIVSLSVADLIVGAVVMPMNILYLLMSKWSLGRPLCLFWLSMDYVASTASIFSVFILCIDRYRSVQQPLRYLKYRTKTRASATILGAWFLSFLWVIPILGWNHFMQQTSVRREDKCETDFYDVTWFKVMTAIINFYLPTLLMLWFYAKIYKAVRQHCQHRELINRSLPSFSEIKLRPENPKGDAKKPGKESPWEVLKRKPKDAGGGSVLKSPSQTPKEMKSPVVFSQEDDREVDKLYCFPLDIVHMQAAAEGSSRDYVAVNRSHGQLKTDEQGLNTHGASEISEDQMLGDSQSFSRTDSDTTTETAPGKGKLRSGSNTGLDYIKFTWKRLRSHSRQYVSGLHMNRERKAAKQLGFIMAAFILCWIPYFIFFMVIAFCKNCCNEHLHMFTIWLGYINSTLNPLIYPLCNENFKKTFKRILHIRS
Description: as §1

[5] = target: T1, glucocorticoid binding sites (Homo sapiens, UniProt P04150); assay: displacement of [3H]dexamethasone from glucocorticoid binding sites; conditions: 0.01, 0.1, 1 and 10 μM tested, 0.5% DMSO
T1 sequence (P04150 1-777): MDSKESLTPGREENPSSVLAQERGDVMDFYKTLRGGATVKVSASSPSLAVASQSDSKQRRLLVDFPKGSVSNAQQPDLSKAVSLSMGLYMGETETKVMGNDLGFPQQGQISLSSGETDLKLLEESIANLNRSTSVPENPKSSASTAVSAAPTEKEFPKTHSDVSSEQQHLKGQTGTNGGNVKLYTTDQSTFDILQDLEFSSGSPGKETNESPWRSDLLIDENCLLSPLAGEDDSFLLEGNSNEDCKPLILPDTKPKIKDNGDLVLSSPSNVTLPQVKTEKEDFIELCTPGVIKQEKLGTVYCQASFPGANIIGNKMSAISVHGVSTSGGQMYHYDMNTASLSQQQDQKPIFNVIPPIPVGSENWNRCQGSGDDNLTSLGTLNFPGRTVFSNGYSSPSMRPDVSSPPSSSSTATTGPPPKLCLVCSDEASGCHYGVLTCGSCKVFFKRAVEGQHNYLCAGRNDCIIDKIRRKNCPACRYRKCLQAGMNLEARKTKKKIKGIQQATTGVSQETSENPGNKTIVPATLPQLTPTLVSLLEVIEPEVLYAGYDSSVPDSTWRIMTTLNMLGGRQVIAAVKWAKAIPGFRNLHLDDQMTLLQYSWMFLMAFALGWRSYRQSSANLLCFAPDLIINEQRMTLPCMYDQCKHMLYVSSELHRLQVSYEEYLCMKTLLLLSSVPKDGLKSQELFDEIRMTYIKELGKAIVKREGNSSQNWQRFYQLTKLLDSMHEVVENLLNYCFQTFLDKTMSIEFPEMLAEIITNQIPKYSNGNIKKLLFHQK
Description: as §1

[6] = target: EGF tyrosine kinase (Homo sapiens, UniProt P00533); assay: inhibition of EGF tyrosine kinase; type: biochemical; conditions: 0.5% DMSO
Sequence of EGF tyrosine kinase (P00533 25-1210): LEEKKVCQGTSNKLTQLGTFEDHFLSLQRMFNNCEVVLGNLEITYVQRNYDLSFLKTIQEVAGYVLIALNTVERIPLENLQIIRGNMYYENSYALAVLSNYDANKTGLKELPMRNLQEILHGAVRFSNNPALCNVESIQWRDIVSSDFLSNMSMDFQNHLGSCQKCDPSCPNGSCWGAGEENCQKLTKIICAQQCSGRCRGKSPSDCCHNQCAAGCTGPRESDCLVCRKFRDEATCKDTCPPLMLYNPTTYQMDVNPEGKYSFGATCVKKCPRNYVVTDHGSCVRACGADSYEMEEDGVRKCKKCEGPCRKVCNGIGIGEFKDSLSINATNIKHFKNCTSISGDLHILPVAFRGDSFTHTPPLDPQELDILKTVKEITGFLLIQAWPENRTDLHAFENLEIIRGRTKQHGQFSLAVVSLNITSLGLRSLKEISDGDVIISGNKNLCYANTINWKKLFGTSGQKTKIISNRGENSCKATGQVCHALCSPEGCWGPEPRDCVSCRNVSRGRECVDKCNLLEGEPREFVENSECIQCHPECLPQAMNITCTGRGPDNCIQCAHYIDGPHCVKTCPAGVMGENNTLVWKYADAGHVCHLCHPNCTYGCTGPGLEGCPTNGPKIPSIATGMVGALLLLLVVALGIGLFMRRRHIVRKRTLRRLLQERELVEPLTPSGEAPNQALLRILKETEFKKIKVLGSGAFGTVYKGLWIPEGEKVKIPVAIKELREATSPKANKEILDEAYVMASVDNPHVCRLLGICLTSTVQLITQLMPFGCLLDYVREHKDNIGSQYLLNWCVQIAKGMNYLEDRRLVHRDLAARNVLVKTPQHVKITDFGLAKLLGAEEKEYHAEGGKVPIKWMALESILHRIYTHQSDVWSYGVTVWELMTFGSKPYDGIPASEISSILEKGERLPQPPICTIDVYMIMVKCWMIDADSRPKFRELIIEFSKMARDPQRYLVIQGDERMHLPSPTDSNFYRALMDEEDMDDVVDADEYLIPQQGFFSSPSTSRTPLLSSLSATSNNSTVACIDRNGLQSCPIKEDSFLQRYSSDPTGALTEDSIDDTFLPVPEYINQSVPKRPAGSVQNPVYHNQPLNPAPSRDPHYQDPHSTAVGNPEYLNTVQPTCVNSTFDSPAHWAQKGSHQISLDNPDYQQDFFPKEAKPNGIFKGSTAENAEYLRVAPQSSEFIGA
Description: as §1

[7] = target: P56^lck tyrosine kinase (Homo sapiens, UniProt P06239); assay: inhibition of P56^lck tyrosine kinase; type: biochemical; conditions: 0.5% DMSO
Sequence of P56^lck tyrosine kinase (P06239 whole entry): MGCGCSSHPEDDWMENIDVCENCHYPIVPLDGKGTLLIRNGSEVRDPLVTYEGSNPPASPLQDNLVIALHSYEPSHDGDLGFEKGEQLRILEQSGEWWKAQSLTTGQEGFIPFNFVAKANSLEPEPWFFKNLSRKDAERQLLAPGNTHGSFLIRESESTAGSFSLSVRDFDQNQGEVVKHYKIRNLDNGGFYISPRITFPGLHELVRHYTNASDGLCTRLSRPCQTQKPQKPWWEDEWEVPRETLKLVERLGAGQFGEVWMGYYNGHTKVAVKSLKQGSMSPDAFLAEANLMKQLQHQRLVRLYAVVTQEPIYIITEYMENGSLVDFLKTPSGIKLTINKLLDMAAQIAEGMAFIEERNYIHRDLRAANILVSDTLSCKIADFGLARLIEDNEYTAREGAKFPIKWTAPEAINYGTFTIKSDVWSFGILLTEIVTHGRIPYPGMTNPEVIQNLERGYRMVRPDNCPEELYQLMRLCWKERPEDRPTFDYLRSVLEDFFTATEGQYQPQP
Description: as §1

[8] = target: P59^fyn tyrosine kinase (Homo sapiens, UniProt P06241); assay: inhibition of P59^fyn tyrosine kinase; type: biochemical; conditions: 0.5% DMSO
Sequence of P59^fyn tyrosine kinase (P06241 whole entry): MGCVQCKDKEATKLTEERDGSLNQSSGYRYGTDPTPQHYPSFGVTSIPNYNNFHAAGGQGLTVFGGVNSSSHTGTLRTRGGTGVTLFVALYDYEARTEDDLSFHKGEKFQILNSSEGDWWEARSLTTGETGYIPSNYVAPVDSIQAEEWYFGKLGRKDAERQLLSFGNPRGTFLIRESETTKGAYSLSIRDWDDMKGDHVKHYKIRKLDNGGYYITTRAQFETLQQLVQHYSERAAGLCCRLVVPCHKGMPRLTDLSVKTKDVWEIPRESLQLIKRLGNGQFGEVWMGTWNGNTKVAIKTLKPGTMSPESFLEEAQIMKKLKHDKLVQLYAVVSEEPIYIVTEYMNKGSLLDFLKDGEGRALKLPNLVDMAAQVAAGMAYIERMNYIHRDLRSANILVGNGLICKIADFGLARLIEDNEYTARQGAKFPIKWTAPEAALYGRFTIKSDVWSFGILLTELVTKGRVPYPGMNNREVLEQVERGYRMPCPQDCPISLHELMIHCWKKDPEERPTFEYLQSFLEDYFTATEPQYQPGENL
Description: as §1

[9] = target: T2, 5-lipoxygenase (Homo sapiens, UniProt P09917); assay: inhibition of 5-lipoxygenase; type: biochemical; conditions: 0.5% DMSO
T2 sequence (P09917 1-674): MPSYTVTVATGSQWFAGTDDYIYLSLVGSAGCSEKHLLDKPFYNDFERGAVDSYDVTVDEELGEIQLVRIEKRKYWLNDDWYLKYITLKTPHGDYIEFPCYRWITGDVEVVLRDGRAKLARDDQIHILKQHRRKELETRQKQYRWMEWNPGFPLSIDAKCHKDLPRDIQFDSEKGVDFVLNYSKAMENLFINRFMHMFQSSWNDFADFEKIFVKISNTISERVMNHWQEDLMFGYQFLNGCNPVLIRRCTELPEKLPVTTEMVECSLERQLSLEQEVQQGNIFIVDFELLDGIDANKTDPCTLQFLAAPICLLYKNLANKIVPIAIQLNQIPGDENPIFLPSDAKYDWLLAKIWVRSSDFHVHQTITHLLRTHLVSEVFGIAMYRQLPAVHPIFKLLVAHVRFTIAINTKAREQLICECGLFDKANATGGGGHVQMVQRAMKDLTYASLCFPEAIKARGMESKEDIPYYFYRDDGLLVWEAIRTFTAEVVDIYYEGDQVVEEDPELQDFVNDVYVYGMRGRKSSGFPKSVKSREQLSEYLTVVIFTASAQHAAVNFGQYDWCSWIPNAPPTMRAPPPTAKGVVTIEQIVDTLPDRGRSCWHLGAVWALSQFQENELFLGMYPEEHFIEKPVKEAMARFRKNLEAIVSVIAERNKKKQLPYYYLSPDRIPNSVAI
Description: as §1

[10] = target: Phospholipase A2; assay: inhibition of Phospholipase A2; type: biochemical; conditions: 0.5% DMSO
Description: as §1

[11] = target: Cyclooxygenase; assay: inhibition of Cyclooxygenase; type: biochemical; conditions: 0.5% DMSO
Description: as §1

[12] = test system: B cell; assay: B cell proliferation in the presence of LPS; type: cell-based
[13] = test system: T cell; assay: T cell proliferation in the presence of ConA; type: cell-based
[14] = solubility in 0.5% DMSO; type: physicochemical; conditions: at 0.01, 0.1, 1 and 10 μM

Structure (SMILES)	inhibition of remodeling PAF-acetyltransferase ([1]; 0.1 μg/well)	inhibition of remodeling PAF-acetyltransferase ([1]; 8.3 μg/well)	inhibition of remodeling PAF-acetyltransferase ([1]; 25 μg/well)	selectivity for the remodeling pathway of PAF synthesis ([1]; versus de novo PAF-acetyltransferase)	inhibition of de novo PAF-acetyltransferase ([2]; 0.1 to 8.3 μg/well)	IC50 [3] [µM]	IC50 [4] [µM]	IC50 [5] [µM]	IC50 [6] [µM]	IC50 [7] [µM]	IC50 [8] [µM]	IC50 [9] [µM]	IC50 [10] [µM]	IC50 [11] [µM]	B cell proliferation [12]	T cell proliferation [13]	solubility [14]	inhibition of remodeling PAF-acetyltransferase ([1]; 0.9 to 0.1 μg/well) [%]	inhibition of de novo PAF-acetyltransferase ([2]; 0.1 to 25 μg/well)
CCC(C)C=C(C)C1C(C)=CC2(C)CC(C)CCC2C1C(=O)C1=CC(O)(Cc2ccc(O)cc2)NC1=O (centres unmarked) [Compound 1494]	about 12%	about 71%	about 65%	selective modulator of the remodeling pathway of PAF synthesis	no significant inhibition	~3	~3	~3	~3	~3	~3	~10	~100	~300	stimulated B cell proliferation	T cell proliferation	partial solubility	–	–
CCC(C)C=C(C)C1C(C)=CC2(C)CC(C)CC(C)C2C1C(=O)C1=CC(O)(Cc2ccc(O)cc2)NC1=O (centres unmarked) [Compound 2158]	–	–	59%	–	–	–	–	–	–	–	–	–	–	–	–	–	–	0	No significant inhibition
